Measurements reported in patent US6743917B2, “Camptothecin analogs and methods of preparation thereof” (University of Pittsburgh, priority 1993, dated 2004).
Read-outs that look alike come from different tables or passages of the source.

Columns and labels:
Lewis lung carcinoma = assay: Antitumor activity in vivo, Lewis lung carcinoma; settings: B6D2F1 mice, intraperitoneously twice daily for five days
Procedure: (§1) Antitumor activities of camptothecin derivatives were tested in B6D2F1 mice bearing sarcoma-180 or Lewis lung murine solid tumor. For S-180, 3×10^6 cells were innoculated subcutaneously on […]. Antitumor treatment started on day 1 intraperitoneously twice daily for five days. Tumor volumes on day 7 and day 14 were measured. Average tumor volumes were described as the ratio of treated versus untreated control (T/C). The control (treated with DMSO vehicle only) tumor volumes for day 7 and day 14 were 0.11 cm^3 and 0.61 cm^3, respectively. The T/C camptothecin is designated with “+++.” An increment or decrement of 10% as compared to the camptothecin T/C on day 14 at 2 mg/kg dosage is designated with increase or decrease of one “+” unit, respectively.
For Lewis lung carcinoma, tumor cells (1×10^6) were inoculated subcutaneously on day 0 and treatment started on day 1, intraperitoneously twice daily for five days. The grading of effects was as described above.

[1] = tested on: DC-3F (hamster lung) cells; assay: Cytotoxicity assay, DC-3F cells (sulforhodamine B protein content); type: cell-based; settings: Mesocricetus auratus, DC3F; DC-3F cells, sulforhodamine B; read-out: Inhibition of cancer cell growth IC50, DC-3F
Procedure: (§2) Cultures were fixed with trichloroacetic acid and then stained for 30 minutes with 0.4% sulforhodamine B dissolved in 1% acetic acid. Unbound dye was removed by acetic acid washes, and the protein-bound dye was extracted with an unbuffered Tris base [tris(hydroxy-methyl)aminomethan] for determination of absorbance at 570 nm in a 96-well microplate reader. The experiments were carried out in duplicate using five to six concentrations of the drugs tested. Data were analyzed via computer software.

[2] = tested on: 833K (human teratocarcinoma) cells; assay: Cytotoxicity assay, 833K cells (sulforhodamine B protein content); type: cell-based; settings: Homo sapiens; 833K cells, sulforhodamine B; read-out: Inhibition of cancer cell growth IC50, 833K
Procedure: as §2

[3] = tested on: HL-60 (human promyelocytic leukemic) cells; assay: Cytotoxicity assay, HL-60 cells (XTT-microculture tetrazolium assay); type: cell-based; settings: Homo sapiens; HL-60 cells, 72 hr incubation, XTT; read-out: Inhibition of cancer cell growth IC50, HL-60
Procedure: The camptothecin derivatives were evaluated for their cytotoxic effects on the growth of HL-60 (human promyelocytic leukemic), 833K (human teratocarcinoma) and DC-3F (hamster lung) cells in vitro. The cells were cultured in an initial density of […]. They were maintained in a 5% CO2 humidified atmosphere at 37° C. in RPMI-1640 media (GIBCO-BRL Grand Island, N.Y.) containing penicillin 100 μ/ml)/streptomycin (100 ^μg/ml) (GIBCO-BRL) and 10% heat inactivated fetal bovine serum. The assay was performed in duplicate in 96-well microplates. The cytotoxicity of the compounds toward HL-60 cells following 72 hr incubation was determined by XTT-microculture tetrazolium assay. Scudiero, D. A., et al., Cancer Res., 48, 4827 (1988), the disclosure of which is incorporated herein by reference. 2′, 3′-bis(-methoxy-4-nitro-5-sulfheny)-5-[(phenylamino)carbonyl]-2H-tetrazolium hydroxide (XTT) was prepared at 1 mg/ml in prewarmed (37° C.) medium without serum. Phenazine methosulfate (PMS) and fresh XTT were mixed together to obtain 0.075 mM PMS-XTT solution (25 ^μl of the stock 5 mM PMS was added per 5 ml of 1 mg/ml XTT). Fifty ^μl of this mixture was added to each well of the cell culture at the end of 72 hr incubation. After incubation at 37° C. for 4 hr., absorbance at 450 nm and 630 nm was measured with a microplate reader (EL340, Bio-Tek Instruments, Inc., Winooski, Vt.).

[4] = earlier studies; cited from earlier work
[5] = cited from earlier work
[6] = Kinetics of lactone ring opening in whole human blood (HPLC); settings: for % Lactone at Equilibrium: Whole Blood, physiological temperature;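 on all read-outs here: hydrolytic opening of the camptothecin lactone ring followed over time by quantitative C18 reversed-phase HPLC in human whole blood at physiological temperature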
Procedure: (§3) Kinetics of Lactone Ring Opening. The hydrolysis kinetics of camptothecins in the presence of different blood components were determined by a quantitative C18 reversed-phase high-performance liquid chromatography (HPLC) assay as described in the literature. […] The preparation of whole blood and fractionated blood samples was carried out as described previously. […] HSA stock solutions were prepared in PBS buffer with a final pH of 7.40±0.05. […] All other agents were reagent grade and were used without further purification. High purity water provided by a Milli-Q UV PLUS purification system (Bedford, Mass.) was utilized in all experiments.
(§4) All experiments were carried out at physiological temperature.

[7] = molecular target: human serum albumin (HSA) (Homo sapiens, UniProt P02768); settings: PBS at pH 7.4; cited from earlier work
[8] = whole human blood, earlier studies; cited from earlier work
[9] = Kinetics of lactone ring opening in PBS buffer (HPLC); type: physicochemical; settings: for % Lactone at Equilibrium: PBS; for half-life: buffer, pH 7.4
Procedure: Kinetics of Lactone Ring Opening. […] Mi and Burke (1994), supra.
FIG. 21 summarizes the stability of DB172 in phosphate buffered saline (PBS) buffer, pH 7.4, at physiological temperature. Shown in the figure are plots of lactone fraction as a function of time for DB172 at different concentrations. Drug was added to solution from a concentrated DMSO stock solution such that the volumes of DMSO were very small (less than 0.5%) relative to the volume of water. […] At the more dilute drug concentrations the drug hydrolyzes as previously observed for other camptothecins containing the ^α-hydroxy-^δ-lactone moiety.

[10] = tested on: MDA-MB-435 tumorigenic metastatic human breast cancer cells; assay: cells; type: cell-based; settings: for IC50: Homo sapiens, MDA-MB-435, 72 h, read-out: IC50 (w/o HSA)
Procedure: Cells. […] The cells were exposed to a range of drug concentrations for 72 hr exposure periods and then viability was assessed using a sulphorrhodamine B (SRB) assay. SRB assays were performed using a standard assay.
Sulphorhodamine B (SRB) assay was used. This assay measures the total protein levels in the living cells. Proteins from dead cells are lysed and removed in the washing step before TCA fixation. However, it is possible that cells in the early stage of death still have their membrane integrity and therefore retain the protein contents inside. As a result, the optical density at 490 nm can sometimes be overestimated and the cytotoxicity underestimated. […] The SRB assay is now a well regarded assay and was recently approved by NCI as a standard assay for anticancer drug screening.

in vitro = settings: human
Procedure: as §3, §4

[11] = Kinetics of lactone ring opening in PBS containing HSA (HPLC)
[12] = Equilibrium binding to DMPC small unilamellar vesicles (fluorescence anisotropy titration); settings: for KDMPC overall association constant: PBS buffer at PH 7.4 and 37° C.
[13] = Equilibrium binding to DMPG small unilamellar vesicles (fluorescence anisotropy titration); settings: PBS buffer at PH 7.4 and 37° C.
[14] = Self-association in aqueous solution (fluorescence intensity with time); type: physicochemical; settings: lactone drug forms added to solution, time=0
Procedure: FIG. 22 summarizes the dependence of the fluorescence intensity of DB172 as a function of time and pH. In these experiments DB172 is added to solution as the lactone form. At low pH where the drug remains in the lactone form, the change in intensity with time is the lowest. At pH 10, where the conditions are such that the lactone more readily hydrolyzes and forms carboxylate, a significant change in fluorescence intensity is observed. It appears that a pH 10 nonfluorescent micellular aggregates composed of lactone disassemble and form open-ring carboxylate forms that tend to exist in solution as monomeric fluorescent species.
FIG. 23 explores the fluorescence intensity of DB172 as a function of concentration. Following the addition of low concentration of lactone drug to solution, the change in fluorescence signal is the greatest whereas at high drug concentration (10 ^μM) the fluorescence intensity changes are minimal. It is believed that a low concentration the micellular aggregates of DB172 displaying reduced fluorescence can disassemble and form fluorescent carboxylate species, but at higher drug concentration the equilibrium favors that the agent remains in the aggregated or reduced fluorescence state. […] Once again this decrease in fluorescence that occurs at reduced pH appear to be due to the formation of lactone aggregates of reduced fluorescence quantum yield.
FIGS. 21 through 24 are consistent with the unusual ability of DB172 lactone to self-associate and form micelles at micromolar drug concentrations. The micellular DB172 aggregates display a reduced fluorescence. If conditions allow for hydrolysis to occur such that carboxylate forms, there is an increase in the fluorescence intensity of the sample. FIG. 25 compares the relative change in the fluorescence emission of a sample following addition of lactone drug forms to solution. In these experiments the values for each drug are normalized to a value of 1 at time equals to zero, and the ability of the various analogs to disassociate in the event the drugs are aggregated at time=0 is monitored with time. […]

sarcoma-180 = assay: Antitumor activity in vivo, sarcoma-180; settings: B6D2F1 mice, intraperitoneously twice daily for five days, several equivalent doses
Procedure: as §1

[15] = human
Procedure: as §3, §4

[16] = human plasma, pH 7.4 and 37° C.
[17] = HSA (PBS containing 30 mg/ml HSA)

Sequence of human serum albumin (HSA) (P02768 25-609): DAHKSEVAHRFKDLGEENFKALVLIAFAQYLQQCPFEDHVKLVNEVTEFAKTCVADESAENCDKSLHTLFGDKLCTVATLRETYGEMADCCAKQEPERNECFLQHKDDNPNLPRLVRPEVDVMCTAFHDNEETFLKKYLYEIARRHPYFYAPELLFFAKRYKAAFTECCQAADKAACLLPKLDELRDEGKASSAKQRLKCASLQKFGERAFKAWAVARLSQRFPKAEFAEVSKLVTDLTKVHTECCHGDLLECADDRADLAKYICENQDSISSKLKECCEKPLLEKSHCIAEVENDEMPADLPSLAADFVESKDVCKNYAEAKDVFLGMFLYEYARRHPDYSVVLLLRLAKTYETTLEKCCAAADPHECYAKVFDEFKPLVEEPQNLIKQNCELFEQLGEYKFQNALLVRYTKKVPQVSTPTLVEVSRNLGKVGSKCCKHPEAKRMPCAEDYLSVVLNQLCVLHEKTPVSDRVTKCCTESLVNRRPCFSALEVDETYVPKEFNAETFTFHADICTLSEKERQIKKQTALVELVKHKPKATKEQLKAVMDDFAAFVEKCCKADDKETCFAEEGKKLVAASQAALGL

Structure (SMILES) | IC50 [1] [nM] | IC50 [2] [nM] | IC50 [3] [nM] | % Lactone at Equilibrium [9] | IC50 [10] [nM] | half-life (in vitro; whole blood) [min] | KDMPC overall association constant [12] [M⁻¹] | KDMPG overall association constant [13] [M⁻¹] | half-life [9] [min] | further results
CCC1(O)C(=O)OCc2c1cc1n(c2=O)Cc2c-1nc1cc(F)ccc1c2[Si](C)(C)C (stereo in doubt) [Example 7, (20S)-11-fluoro-7-trimethylsilylcamptothecin] | 2 | 0.92 | 0.75 |  |  |  |  |  |  | similar antitumor effect (tumor volume reduction) to camptothecin at x-fold lower doses (Lewis lung carcinoma): 4 fold
CC[C@@]1(O)C(=O)OCc2c1cc1n(c2=O)Cc2cc3c(N)cccc3nc2-1 [9-aminocamptothecin] |  |  |  |  |  |  |  |  |  | fraction hydrolyzed in PBS solution containing HSA [4]: > 97%; fraction converted to carboxylate in plasma ([5]; plasma): > 99.5%; % Lactone at Equilibrium [6]: < 0.3%
CC[C@@]1(O)C(=O)OCc2c1cc1n(c2=O)Cc2cc3ccccc3nc2-1 [CPT, (20S)-Camptothecin, reference compound] | 6 to 9 | 10 | 5 | 17 +/− 2.0% | 8 | 21.6 | 100 | 100 |  | affinity of HSA for the carboxylate form, fold higher than for the lactone form [7]: 200 fold; % lactone at equilibrium in human plasma [5, 16]: 0.2%; t1/2 of lactone opening in human plasma [5, 16]: 11 min; % Lactone at Equilibrium ([6]; listed as Camptothecin): 5.3 +/− 0.6%; % Lactone at Equilibrium ([6]; listed as camptothecin): 5.3%; lactone level at equilibrium in whole blood, fold greater than 9-aminocamptothecin ([6]; relative to 9-aminocamptothecin): approximately 10 fold; t1/2 of lactone in whole blood [8]: 22 min; % Lactone at Equilibrium [11, 17]: <0.5%; t1/2 [11, 17]: 11.9 ± 0.3 min
CC[C@@]1(O)C(=O)OCc2c1cc1n(c2=O)Cc2c-1nc1ccc(N)cc1c2CC[Si](C)(C)C [DB-173] |  |  |  | 11.9 +/− 0.3% | 4 | 69 | 5800 | 5800 | 45.3 | self-association / aggregation state in solution [14]: much more likely to be found in solution as monomeric drug relative to DB172; effect of 1 mg/ml HSA on the cytotoxic activity ([10]; MDA-MB-435 cells): no effect; half-life ([11]; human, PBS containing 30 mg/ml HSA, pH 7.4): 49 min; K value for DMPC, fold greater than camptothecin ([12]; relative to camptothecin): ~58 fold
CC[C@@]1(O)C(=O)OCc2c1cc1n(c2=O)Cc2c-1nc1ccccc1c2[Si](C)(C)C [Example 1, (20S)-7-trimethylsilylcamptothecin] | 4.2 | 5.6 | 3.8 | 11.1 +/− 0.1% |  |  |  |  | 34.6 | activity against sarcoma 180 compared with camptothecin (tumor volume reduction) (sarcoma-180): better activity than camptothecin; % Lactone at Equilibrium [15]: 23.7 +/− 0.0%; half-life (in vitro; blood): 54.6 min
